{"source": "patent EP1510220B1", "about": "(priority 1993, dated 1994)", "key": {"[1]": {"system": "TGF-beta", "assay": "ELISA for TGF-beta in medium conditioned on human EX cultures", "format": "cell-based", "conditions": "5 µM", "procedure": "The total latent and active TGF-beta present was determined by a sandwich ELISA. Maxisorb 96-well ELISA plates (available from Gibco) were coated with neutralizing antiserum against TGF-beta (BDA19; available from R & D Systems) at 2 micrograms/cm^2 in phosphate buffered saline (PBS) overnight at room temperature. The plates were washed between each step with tris-buffered saline containing 0.1% Triton X-100 (available from Sigma Chemical Company). The plates were incubated with samples for 2 hours, with a second antibody to TGF-beta (BDA5; available from R & D Systems) at 0.1 micrograms/ml for 2 hours, anti-rabbit IgG peroxidase conjugated to antibody (available from Sigma Chemical Co.), made up according to manufacturer's instructions, for 15 minutes. Absorbances at 492 nm were converted into quantities of TGF-beta protein using a standard curve. Both conditioned media and standards were assayed in the presence of 10% FCS in DMEM. This assay was linear for TGF-beta concentrations in the range from 0.1 ng/ml to 20 ng/ml in the presence of 10% FCS in DMEM.\nCell counting, DNA synthesis assays and assays for total and active TGF-beta were performed as described in Example 7."}, "[2]": {"system": "Rat aortic SMCs", "assay": "Wound migration assay on confluent SMC", "format": "cell-based", "procedure": "Cell culture. Rat aortic SMCs from 12-20 week old Wistar male rats were prepared by enzyme dispersion, as described in Example 7. The cultured cells were confirmed as >99% SMC by staining for SM-MHC, and proliferated with a cell cycle time of 36 h. Cells were passaged as described in Example 7, and were used either in primary culture or between passages 6-12.\nMigration. Migration was assayed using SMC grown to confluence on glass coverslips. A defined injury is performed on the confluent layer of cells, which are allowed to recover in D-MEM + 10% FCS for 24 h. Bromodeoxyuridine (10 µM) is added between 18-24 h, to label proliferating cells. Cells migrating past the boundary of the wound edge at 24 h are detected by propidium iodide (PI) staining of the cell nuclei (500 µM PI in PBS + 0.5% NP-40 for 30 min at room temperature). Cells that synthesized DNA were detected by antibody staining for bromodeoxyuridine using fluorescein-conjugated anti-bromodeoxyuridine antibodies. Migrating and proliferating cells in each field of view were simultaneously counted by image analysis of the rhodamine emission from PI and fluorescein emission from bromodeoxyuridine."}, "[3]": {"system": "Rat adventitial fibroblasts", "assay": "Proliferation of adventitial fibroblasts", "format": "cell-based", "procedure": "Rat adventitial fibroblasts were cultured as described in Grainger et al., Biochem. J., 283: 403-408, 1992. Briefly, the aortae were treated with collagenase (3 mg/ml) for 30 minutes at 37°C. The tunica adventitia was stripped away from the media. The adventitia was dispersed for 2 hours in elastase (1 mg/ml) and collagenase (3 mg/ml) dissolved in medium M199 (available from ICN/Flow). The cells were then spun out (900 x g, 3 minutes), resuspended in DMEM + 10% FCS and plated out at 8 x 10^4 cells/cm^2 on tissue culture plastic. When the cells reached confluence (after about 10 days), they were subcultured as described for vascular smooth muscle cells. Adventitial fibroblasts were subcultured every 3 days at 1:3 dilution and used between passages 3 and 9.\nCells were prepared for counting by hemocytometer from triplicate culture dishes as described in Grainger et al., Biochem. J., 277:145-151, 1991. Cells were also counted by direct microscopic observation of gridded culture dishes. The grids were scored into the plastic on the inner surface, so that the cells could not migrate into or out of the area being counted during the experiment. Cells in each of four squares in two separate wells were counted at each time point. All cell counting experiments were repeated on at least three separate cultures."}, "[4]": {"system": "TGF-beta1 mRNA", "conditions": "vascular smooth muscle cells, 24 h, 10 µM"}}}
{"smiles": "CC/C(=C(\\c1ccccc1)c1ccc(OCCN(C)C)cc1)c1ccccc1", "note": "[tamoxifen, trans-2-[4-(1,2-diphenyl-1-butenyl)phenoxy]-N,N-dimethylethylamine]", "values": [{"measurement": "proportion of total TGF-beta protein that was activated", "setting": "[1]", "value": "55±5", "unit": "%"}, {"measurement": "total TGF-beta protein in conditioned medium", "setting": "[1]", "value": "6.0 ± 2.0", "unit": "ng/mL"}, {"measurement": "inhibition at 10 µM", "setting": "[2]; Rattus norvegicus, added at the time of wounding, TGF-beta-1 10 ng/ml, tamoxifen 10 µM, 24 h, read-out: less cells crossed the boundary of the wound", "value": "~90", "unit": "%"}, {"measurement": "entry into DNA synthesis stimulated upon wounding", "setting": "[2]; bromodeoxyuridine labeling", "value": "did not significantly inhibit"}, {"measurement": "rate of proliferation of subcultured adventitial fibroblasts", "setting": "[3]; concentrations of up to 50 micromolar", "value": "did not reduce the rate of proliferation"}, {"measurement": "ED50 lower for vascular smooth muscle cells than for adventitial fibroblasts", "setting": "[3]; selectivity, vascular smooth muscle cells vs adventitial fibroblasts", "value": "at least 10 fold"}, {"measurement": "increase of TGF-beta1 mRNA", "setting": "[4]", "value": "approximately 10 fold"}]}
